Values of other authors in patent US20200121616A1, “COMPOSITIONS COMPRISING CANNABIDIOL AND HYALURONIC ACID FOR TREATING INFLAMMATORY JOINT DISEASES” (BOL PHARMA LTD., priority 2015, published 2020).

In the case of Hyaluronic acid, the pKa is given as “about 2.8”.
